How the values were obtained:
Assay in all cases: Cytotoxicity assay, colorectal cancer cell line panel, onvansertib +/- 1 nM INBRX-109
Type in all cases: cell-based
[1] = test system: NCI-H747; settings: for EC50: Homo sapiens, NCI-H747, NCI-H747; for Max Cytotox at 600 nM: NCI-H747
Procedure: (§1) Monolayer cultures of each cell line were harvested for compound screening as detailed below.
(§2) Also on day 2, test and control articles were added.
(§3) On day 4, viability measurements were taken. […] Data was graphed in GraphPad Prism 9.
(§4) The results for a panel of colorectal cancer cell lines are shown in Table 3 and FIGS. 4-6, and the results for a panel of pancreatic cell lines are shown in Table 4 and FIGS. 7 and 8.

[2] = test system: RKO; settings: for EC50: Homo sapiens
Procedure: as §1, §2, §3, §4

[3] = test system: SK-CO-1; settings: for EC50: Homo sapiens, SK-CO-1, SK-CO-1; for Max Cytotox at 600 nM: SK-CO-1
Procedure: as §1, §2, §3, §4

[4] = test system: SNU-81
Procedure: as §1, §2, §3, §4

[5] = test system: SNU-C2A
Procedure: as §1, §2, §3, §4

[6] = test system: SNU-C5
Procedure: as §1, §2, §3, §4

[7] = test system: SW-1116; settings: for EC50: Homo sapiens, SW 1116, SW-1116; for Max Cytotox at 600 nM: SW-1116
Procedure: as §1, §2, §3, §4

[8] = test system: SW-1463; settings: for EC50: Homo sapiens, SW1463, SW-1463; for Max Cytotox at 600 nM: SW-1463
Procedure: as §1, §2, §3, §4

[9] = test system: SW-403; settings: for EC50: Homo sapiens, SW-403, SW-403; for Max Cytotox at 600 nM: SW-403
Procedure: as §1, §2, §3, §4

[10] = test system: SW-480; settings: for EC50: Homo sapiens, SW480, SW-480; for Max Cytotox at 600 nM: SW-480
Procedure: as §1, §2, §3, §4

[11] = test system: SW-48; settings: for EC50: Homo sapiens, SW48, SW-48; for Max Cytotox at 600 nM: SW-48
Procedure: as §1, §2, §3, §4

[12] = test system: SW-837; settings: for EC50: Homo sapiens, SW837, SW-837; for Max Cytotox at 600 nM: SW-837
Procedure: as §1, §2, §3, §4

[13] = test system: SW-948; settings: for EC50: Homo sapiens, SW948, SW-948; for Max Cytotox at 600 nM: SW-948
Procedure: as §1, §2, §3, §4

[14] = test system: SW620; settings: for EC50: Homo sapiens, SW-620, SW620; for Max Cytotox at 600 nM: SW620
Procedure: as §1, §2, §3, §4

[15] = test system: T84; settings: for EC50: Homo sapiens, T84, T84; for Max Cytotox at 600 nM: T84
Procedure: as §1, §2, §3, §4

Question: Which results are given for `CN1CCN(c2ccc(OC(F)(F)F)c(Nc3ncc4c(n3)-c3c(c(C(N)=O)nn3CCO)CC4)c2)CC1` [Onvansertib]?
Answer: EC50 ([1]; onvansertib + 1 nM INBRX-109): 78.7 nM; EC50 ([1]; onvansertib only): 71.6 nM; Max Cytotox at 600 nM ([1]; onvansertib + 1 nM INBRX-109): 44.5%; Max Cytotox at 600 nM ([1]; onvansertib only): 17.4%; EC50 ([2]; onvansertib + 1 nM INBRX-109): 54.7 nM; EC50 ([2]; onvansertib only): 85.9 nM; Max Cytotox at 600 nM ([2]; onvansertib + 1 nM INBRX-109): 93.8%; Max Cytotox at 600 nM ([2]; onvansertib only): 65.7%; EC50 ([3]; onvansertib + 1 nM INBRX-109): 111 nM; EC50 ([3]; onvansertib only): 113 nM; Max Cytotox at 600 nM ([3]; onvansertib + 1 nM INBRX-109): 94.2%; Max Cytotox at 600 nM ([3]; onvansertib only): 52.8%; EC50 ([4]; onvansertib + 1 nM INBRX-109): 71.9 nM; Max Cytotox at 600 nM ([4]; onvansertib + 1 nM INBRX-109): 92.3%; EC50 ([4]; onvansertib only): 187 nM; Max Cytotox at 600 nM ([4]; onvansertib only): 24.3%; EC50 ([5]; onvansertib + 1 nM INBRX-109): 42.9 nM; Max Cytotox at 600 nM ([5]; onvansertib + 1 nM INBRX-109): 78.0%; EC50 ([5]; onvansertib only): 72.7 nM; Max Cytotox at 600 nM ([5]; onvansertib only): 42.9%; EC50 ([6]; onvansertib + 1 nM INBRX-109): 57.7 nM; Max Cytotox at 600 nM ([6]; onvansertib + 1 nM INBRX-109): 87.7%; EC50 ([6]; onvansertib only): 95.6 nM; Max Cytotox at 600 nM ([6]; onvansertib only): 42.9%; EC50 ([7]; onvansertib + 1 nM INBRX-109): 411 nM; EC50 ([7]; onvansertib only): 441 nM; Max Cytotox at 600 nM ([7]; onvansertib + 1 nM INBRX-109): 39.4%; Max Cytotox at 600 nM ([7]; onvansertib only): 10.4%; EC50 ([8]; onvansertib + 1 nM INBRX-109): 98 nM; EC50 ([8]; onvansertib only): 201 nM; Max Cytotox at 600 nM ([8]; onvansertib + 1 nM INBRX-109): 64.2%; Max Cytotox at 600 nM ([8]; onvansertib only): 21.0%; EC50 ([9]; onvansertib + 1 nM INBRX-109): 64.9 nM; EC50 ([9]; onvansertib only): 62.5 nM; Max Cytotox at 600 nM ([9]; onvansertib + 1 nM INBRX-109): 89.0%; Max Cytotox at 600 nM ([9]; onvansertib only): 46.4%; EC50 ([10]; onvansertib + 1 nM INBRX-109): 93.3 nM; EC50 ([10]; onvansertib only): 126 nM; Max Cytotox at 600 nM ([10]; onvansertib + 1 nM INBRX-109): 86.3%; Max Cytotox at 600 nM ([10]; onvansertib only): 40.7%; EC50 ([11]; onvansertib + 1 nM INBRX-109): 28.3 nM; EC50 ([11]; onvansertib only): 37.3 nM; Max Cytotox at 600 nM ([11]; onvansertib + 1 nM INBRX-109): 99.4%; Max Cytotox at 600 nM ([11]; onvansertib only): 76.6%; EC50 ([12]; onvansertib + 1 nM INBRX-109): 184 nM; EC50 ([12]; onvansertib only): 227 nM; Max Cytotox at 600 nM ([12]; onvansertib + 1 nM INBRX-109): 73.5%; Max Cytotox at 600 nM ([12]; onvansertib only): 24.5%; EC50 ([13]; onvansertib + 1 nM INBRX-109): 23.3 nM; EC50 ([13]; onvansertib only): 97 nM; Max Cytotox at 600 nM ([13]; onvansertib + 1 nM INBRX-109): 99.0%; Max Cytotox at 600 nM ([13]; onvansertib only): 43.2%; EC50 ([14]; onvansertib + 1 nM INBRX-109): 54.6 nM; EC50 ([14]; onvansertib only): 62.1 nM; Max Cytotox at 600 nM ([14]; onvansertib + 1 nM INBRX-109): 90.4%; Max Cytotox at 600 nM ([14]; onvansertib only): 61.8%; EC50 ([15]; onvansertib + 1 nM INBRX-109): 297 nM; EC50 ([15]; onvansertib only): 355 nM; Max Cytotox at 600 nM ([15]; onvansertib + 1 nM INBRX-109): 62.9%; Max Cytotox at 600 nM ([15]; onvansertib only): 32.1%

Source: patent US20250215101A1, “DR5 Agonist and PLK1 Inhibitor or CDK Inhibitor Combination Therapy” (Inhibrx Biosciences, Inc., priority 2022, published 2025)
